These results are taken from patent publication US11141495B2, “MRI imaging of amyloid plaque using liposomes” (Texas Children's Hospital, priority 2014, dated 2021).

Read-outs that look alike come from different tables or passages of the source.

Assay [1] concerns the target T1, Aβ(1-40) fibrils (Homo sapiens, UniProt P05067).
T1 construct: Aβ(1-40) peptide (rPeptide, Bogart, Ga.); purchased rPeptide, Bogart, Ga
The experiment in a line: Binding assay of compounds or compound-labeled liposomes with amyloid fibrils (fluorescence of washed fibrils). Particulars: for binding to fibrils, relative fluorescence unit: at a concentration of 1 μM. As for the experimental part:
(§1) Aβ fibrils were synthesized according to the method of Klunk et al. Ann Neurol, 2004; 55: 306-19, the entire teachings of which are incorporated herein by reference. Briefly, Aβ(1-40) peptide (rPeptide, Bogart, Ga.) was dissolved in phospho-buffered saline, pH 7.4 to a final concentration of 433 μg/mL (100 μM). The solution was stirred using a magnetic stir bar at 700 rpm for 4 h at room temperature to drive the formation of fibrils. The stock solution was aliquoted and stored at −80° C. for future use. The stock solutions were stirred thoroughly before removing aliquots for binding assays to maintain a homogenous suspension of fibrils. […]
(§2) Binding assay: The binding affinity of the compounds or compound-labeled liposomes with the amyloid fibrils was measured by following methods. Ligand-labeled liposomes, ligand stock solutions, and Chrysamine G fix competition assays were diluted with […] to 500 nM. Fibril stock solution was mixed with a stock solution of the compound or the compound-labeled liposomes in a 200 μL reaction mix to give a final concentration of fibrils (20 μM) with test compounds varying from 0.0625-20 μM. The binding mixture was incubated at room temperature for 1 h. Subsequently, the incubated binding mixture was centrifuged for 20 min at 16,400 rpm to separate the fibrils. The fibril precipitate was washed twice with Tris-HCl. Fluorescence was then measured in a Filter Max F-5 multi-mode plate reader (Molecular Devices, Sunnyvale, Calif.), using excitation and emission wavelengths of 405 nm and 535 nm, respectively. Competitive binding assays used 20 μM of fibrils, 1.0 μM test compounds and varying amounts of the non-fluorescent competitor, Chrysamine G and incubated for 1 h.
FIG. 7B is a graph showing fibril binding data and a calculated fit for estimation of the binding constant far Compound ii to fibrils at Kd=5.0 μM. FIG. 7C is a graph showing fibril binding data and a calculated fit for estimation of the binding constant for Compound iii to fibrils at Kd=5.0 μM. […] Binding to fibrils was quantified by measuring the fluorescence of the respective binding agent to washed fibrils. The data was fitted to a monolayer binding equation; Kd=1/Kb.

Assay [2] concerns the target T1, Aβ(1-40) fibrils. Nature of the assay: Competitive binding assay to fibrils versus Chrysamine G. As to conditions: for % bound to fibrils in competition with Chrysamine-G: Chrysamine-G concentration of 1 μM, 20 μM fibrils, 1.0 μM test compound. The protocol:
as §1, §2

Another assay relates to amyloid plaques. The experiment in a line: Fluorescent staining of human AD frontal cortex tissue sections. Particulars: frontal cortex of an AD autopsy case; 1 mM, 2 hours. The protocol: (§3) Compound iii solutions in PBS were incubated with frontal cortex tissue obtained from autopsy of an AD patient (the University of Kentucky Institutional Review Board approved the use of human tissue for the study; informed consent was obtained prior to autopsy) and a 12.3 year old canine. Both the human and canine tissues had Alzheimer's amyloid pathology confirmed from previous studies. 50 μm thick free-floating sections were mounted on slides and allowed to dry overnight. Slides were then washed in PBS (3×5 min) and incubated in Compound iii solution (1 mM) for 2 hours and then again washed 3×5 min in PBS, and coverslipped in Vectashield mounting medium with […] (Vector Laboratories, Burlingame, Calif.). Sections were imaged on an Olympus BX-51 microscope with a broadpass filter (Olympus Corporation of the Americas, Center Valley, Pa.).

In assay [3] the test system is cerebral amyloid angiopathy. The experiment in a line: Fluorescent staining of aged dog frontal cortex tissue sections. As to conditions: 12.3 year old canine, 1 mM, 2 hours. The protocol:
as §3

T1 sequence (P05067 672-711): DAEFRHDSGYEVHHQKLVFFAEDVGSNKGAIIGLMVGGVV

As a reminder, the Kd is the free concentration of one partner at which half of the binding sites on the other are occupied at equilibrium, for simple one-to-one binding. Turning to `CN(CCO)c1ccc(/C=C/c2ccncn2)cc1` [Compound ii, (E)-2-{methyl[4-(2-(pyrimidin-4-yl)vinyl)phenyl]amino}ethanol], the Kd at Aβ(1-40) fibrils [1] (20 μM fibrils, read-out: Kd, binding constant to fibrils (calculated fit, monolayer binding equation)) was 5 µM. In addition, the “binding to fibrils, relative fluorescence unit” value at Aβ(1-40) fibrils [1] (20 μM fibrils) turned out to be 35 m RFU. Moreover, at Aβ(1-40) fibrils [2], the “% bound to fibrils in competition with Chrysamine-G” value (“% bound to fibrils in competition” for short) is on record as “about 45%”.
`OCCN(CCO)c1ccc(/C=C/c2ccncn2)cc1` [Compound iii, (E)-2,2′-{[4-(2-(pyrimidin-4-yl)vinyl)phenyl]azanediyl}diethanol] returned a Kd at Aβ(1-40) fibrils [1] of 5 µM. In addition, the “binding to fibrils, relative fluorescence unit” value at Aβ(1-40) fibrils [1] (20 μM fibrils) stood at 400 k RFU. Further, the “% bound to fibrils in competition” value on Aβ(1-40) fibrils [2] is listed as “about 55%”. For the same molecule, in the assay on amyloid plaques, the “staining of amyloid plaques in human brain tissue” value was “specifically stains amyloid plaques”. For the same molecule, the “labeling of cerebral amyloid angiopathy in aged dog brain tissue” value in assay [3] is given as “labels cerebral amyloid angiopathy”.
On to `COc1cc(/C=C/c2ccc(O)cc2)ccc1/C=C/c1ccc(O)cc1` [MeXO4, reference compound], for which the “binding to fibrils, relative fluorescence unit” value on Aβ(1-40) fibrils [1] (20 μM fibrils) is “less than 100 k RFU”. For the same molecule, on Aβ(1-40) fibrils [2], the “bound species displaced by Chrysamine G” value was more than 80% and the “% bound to fibrils in competition” value was “about 20%”.
